Where “and” joins values, the source holds several entries; their conditions need not be identical. Equal entries are not always repeated. Values belong to the molecule of their own block, whether it stands above or below them.
Key:
[1] = Physical property (vapor pressure, odor) of alphacarboxylic acids and peroxyalphacarboxylic acids; format: physicochemical
[2] = PLA generation kinetics and pH from solid pellet of Table 4 dissolved in DI water; format: physicochemical
Experimental: Following the successful perhydrolysis reactions of the lactide and glycolide esters, the solid composition shown in Table 4 using a lactide precursor was used to generate peroxylactic acid according to the same reaction scheme in FIG. 1. The lactide precursor was formulated into a solid pellet with citric acid and sodium percarbonate and the solid peroxyalphahydroxycarboxylic acid forming composition was added to water for the perhydrolysis reaction to generate peroxylactic acid (PLA). Beneficially, the citric acid acts as both a buffer and a dispersant or disintegrating reagent to provide effervescence to dissolve the solid composition more quickly into water and initiate the reaction of forming PLA. The reaction kinetics were evaluated by dissolving approximately 2.5 gram pellet as shown in Table 4 in 500 mL DI water to measure PLA generation and pH over time.
The PLA generation were measured on two occasions. […] The initial testing point of 10 minutes provides time for the pellet to dissolve in the water so that PLA generation can begin.
The stability of the tablets is also quantifiable by the chemistry of the reagents as they are capable of self-reacting. As a result, tablet (or solid) stability can also be assessed by the ability or capacity of the tablet to generate PLA after storage as another quantifiable mechanism to confirm stability. This is shown in Example 1, Table 6 compared to Table 5 is a direct comparison of PLA generation profiles of the tablets after 9 months of storage. […] In some embodiments it is preferred that at least about 50% or preferably at least about 80% of the PLA (or peroxyalphahydroxycarboxylic acid) generation is maintained.

[3] = test system: Escherichia coli ATCC 11229; assay: US EPA food contact suspension test (AOAC 960.09); format: cell-based; conditions: 30 seconds, 500 ppm synthetic hard water, ambient (18-20° C.)
Experimental: (§1) Antimicrobial Efficacy of Peroxylactic Acid. The antimicrobial efficacy of peroxylactic acid generated from the solid peroxyalphahydroxycarboxylic acid forming composition of Table 4 was evaluated following the US EPA food contact suspension test protocol (AOAC 960.09) against Staphylococcus aureus and Escherichia coli according to the conditions set forth in Table 7.

[4] = test system: Staphylococcus aureus ATCC 6538; assay: US EPA food contact suspension test (AOAC 960.09); format: cell-based; conditions: 30 seconds, 500 ppm synthetic hard water, ambient (18-20° C.)
Experimental: as §1

[5] = test system: Salmonella ser. Heidelberg, Newport and Braenderup (modified to be resistant to 50 μg/mL nalidixic acid); assay: Antimicrobial efficacy on chicken carcass, 15 second dip; format: cell-based; conditions: for Avg Log10 Survivors / CFU/Surface (CFU/ml × 50) / Log10 Reduction / Log10 Survivors: 15 second dip, drain time 30 minutes, room temperature
Experimental: Antimicrobial Efficacy of Peroxylactic Acid. The antimicrobial efficacy of peroxylactic acid generated from the solid peroxyalphahydroxycarboxylic acid forming composition of Table 4 was evaluated on chicken carcass against Salmonella in comparison to peroxyacetic acid (PAA). The molecular weight of PLA is 106, and PAA 76, therefore the molar equivalent base of the peracids is 500 ppm PLA equals to 359 ppm PAA.

[6] = test system: Listeria monocytogenes ATCC 49594; assay: US EPA food contact suspension test (AOAC 960.09), FIG. 3; format: cell-based; conditions: 100 ppm, 30 seconds
Experimental: (§2) Additional Antimicrobial Efficacy of Peroxylactic Acid. Additional antimicrobial efficacy of generated peroxylactic acid was evaluated following the US EPA food contact suspension test protocol (AOAC 960.09) against Salmonella, E. coli, Campylobacter and Listeria according to the conditions set forth in Table 12.

[7] = test system: Salmonella, E. coli, Campylobacter and Listeria; assay: as above; format: cell-based; conditions: as low as 25 ppm, 30 seconds
Experimental: as §2

[8] = cited from earlier work
[9] = test system: Listeria monocytogenes ATCC 49594; conditions: known; cited from earlier work
[10] = approx. 2.5 gram pellet of Table 4 in 500 mL DI water, first PLA generation, 10 min
[11] = approx. 2.5 gram pellet of Table 4 in 500 mL DI water, first PLA generation, 30 min
[12] = approx. 2.5 gram pellet of Table 4 in 500 mL DI water, first PLA generation, 60 min
[13] = approx. 2.5 gram pellet of Table 4 in 500 mL DI water, first PLA generation, 90 min
[14] = approx. 2.5 gram pellet of Table 4 in 500 mL DI water, first PLA generation, 120 min
[15] = approx. 2.5 gram pellet of Table 4 in 500 mL DI water, first PLA generation, 150 min
[16] = approx. 2.5 gram pellet of Table 4 in 500 mL DI water, first PLA generation, 180 min
[17] = approx. 2.5 gram pellet of Table 4 in 500 mL DI water, first PLA generation, 210 min
[18] = approx. 2.5 gram pellet of Table 4 in 500 mL DI water, first PLA generation, 240 min
[19] = same batch of tablets stored under ambient conditions for 9 months, 20 min
[20] = same batch of tablets stored under ambient conditions for 9 months, 30 min
[21] = same batch of tablets stored under ambient conditions for 9 months, 40 min
[22] = same batch of tablets stored under ambient conditions for 9 months, 50 min
[23] = same batch of tablets stored under ambient conditions for 9 months, 60 min
[24] = same batch of tablets stored under ambient conditions for 9 months, 120 min
[25] = same batch of tablets stored under ambient conditions for 9 months, 240 min
[26] = same batch of tablets stored under ambient conditions for 9 months, 300 min
[27] = same batch of tablets stored under ambient conditions for 9 months, 360 min

Compound: CC(O)C(=O)OO (stereo not shown) [PLA, peroxylactic acid]
Odor [1]: Odorless | PLA (ppm) [2, 10]: 130 ppm | pH [2, 10]: 6.06 | PLA (ppm) [2, 11]: 222 ppm | pH [2, 11]: 5.95 | PLA (ppm) [2, 12]: 236 ppm | pH [2, 12]: 5.64 | PLA (ppm) [2, 13]: 217 ppm | pH [2, 13]: 5.41 | PLA (ppm) [2, 14]: 202 ppm | pH [2, 14]: 5.23 | PLA (ppm) [2, 15]: 188 ppm | pH [2, 15]: 5.11 | PLA (ppm) [2, 16]: 170 ppm | pH [2, 16]: 5.01 | PLA (ppm) [2, 17]: 152 ppm | pH [2, 17]: 4.93 | PLA (ppm) [2, 18]: 146 ppm | pH [2, 18]: 4.87 | PLA (ppm) ([2]; same batch of tablets stored under ambient conditions for 9 months, 10 min): 122 ppm | PLA (ppm) [2, 19]: 150 ppm | pH [2, 19]: 5.73 | PLA (ppm) [2, 20]: 170 ppm | pH [2, 20]: 5.69 | PLA (ppm) [2, 21]: 198 ppm | pH [2, 21]: 5.62 | PLA (ppm) [2, 22]: 198 ppm | pH [2, 22]: 5.58 | PLA (ppm) [2, 23]: 200 ppm | pH [2, 23]: 5.49 | PLA (ppm) [2, 24]: 179 ppm | pH [2, 24]: 5.25 | PLA (ppm) ([2]; same batch of tablets stored under ambient conditions for 9 months, 180 min): 160 ppm | PLA (ppm) [2, 25]: 129 ppm | pH [2, 25]: 4.82 | PLA (ppm) [2, 26]: 102 ppm | pH [2, 26]: 4.74 | PLA (ppm) [2, 27]: 85 ppm | pH [2, 27]: 4.68 | Average Log10 Growth ([3]; 25 ppm PLA): 3.25 Log10 | CFU/ml ([3]; 25 ppm PLA): 1.49E+03 CFU/ml and 2.10E+03 CFU/ml | Log10 Growth ([3]; 25 ppm PLA): 3.17 Log10 and 3.32 Log10 | Log10 Reduction ([3]; 25 ppm PLA): 4.64 Log10 | Average Log10 Growth ([3]; 50 ppm PLA): <1.00 Log10 | CFU/ml ([3]; 50 ppm PLA): <1.00E+01 CFU/ml | Log10 Growth ([3]; 50 ppm PLA): <1.00 Log10 | Log10 Reduction ([3]; 50 ppm PLA): >6.89 Log10 | Average Log10 Growth ([3]; 100 ppm PLA): <1.00 Log10 | CFU/ml ([3]; 100 ppm PLA): <1.00E+01 CFU/ml | Log10 Growth ([3]; 100 ppm PLA): <1.00 Log10 | Log10 Reduction ([3]; 100 ppm PLA): >6.89 Log10 | Average Log10 Growth ([4]; 50 ppm PLA): >6.48 Log10 | CFU/ml ([4]; 50 ppm PLA): >3.00E+06 CFU/ml | Log10 Growth ([4]; 50 ppm PLA): >6.48 Log10 | Log10 Reduction ([4]; 50 ppm PLA): <1.32 Log10 | Average Log10 Growth ([4]; 100 ppm PLA): 5.22 Log10 | CFU/ml ([4]; 100 ppm PLA): 2.20E+05 CFU/ml and 1.24E+05 CFU/ml | Log10 Growth ([4]; 100 ppm PLA): 5.34 Log10 and 5.09 Log10 | Log10 Reduction ([4]; 100 ppm PLA): 2.58 Log10 | Average Log10 Growth ([4]; 150 ppm PLA): 2.82 Log10 | CFU/ml ([4]; 150 ppm PLA): 9.20E+02 CFU/ml and 4.80E+02 CFU/ml | Log10 Growth ([4]; 150 ppm PLA): 2.96 Log10 and 2.68 Log10 | Log10 Reduction ([4]; 150 ppm PLA): 4.98 Log10 | Average Log10 Growth ([4]; 200 ppm PLA): <1.00 Log10 | CFU/ml ([4]; 200 ppm PLA): <1.00E+01 CFU/ml | Log10 Growth ([4]; 200 ppm PLA): <1.00 Log10 | Log10 Reduction ([4]; 200 ppm PLA): >6.80 Log10 | Avg Log10 Survivors ([5]; 500 ppm): 6.55 Log10 | CFU/Surface (CFU/ml × 50) ([5]; 500 ppm): 2.90E+06 CFU/Surface and 5.45E+06 CFU/Surface | Log10 Reduction ([5]; 500 ppm): 1.08 Log10 | Log10 Survivors ([5]; 500 ppm): 6.46 Log10 and 6.74 Log10 | Micro efficacy (log reduction) compared to peroxyacetic acid ([5]; 1000 ppm): improved micro efficacy | Avg Log10 Survivors ([5]; 1000 ppm): 6.16 Log10 | CFU/Surface (CFU/ml × 50) ([5]; 1000 ppm): 1.60E+06 CFU/Surface and 1.85E+06 CFU/Surface and 1.05E+06 CFU/Surface | Log10 Reduction ([5]; 1000 ppm): 1.47 Log10 | Log10 Survivors ([5]; 1000 ppm): 6.20 Log10 and 6.27 Log10 and 6.02 Log10 | Avg Log10 Survivors ([5]; 2000 ppm): 6.54 Log10 | Log10 Reduction ([5]; 2000 ppm): 1.09 Log10 | Micro efficacy (log reduction) compared to peroxyacetic acid ([5]; varying concentrations): at least equivalent micro efficacy | log reduction against Listeria [6]: greater than 7 log | Efficacy against various microbes [7]: provides efficacy at low concentration doses

Odor [1]: Sour
Compound: CC(=O)O [Acetic Acid]
Vapor Pressure (20° C.) [8]: 1.56 KPa

Compound: CC(O)C(=O)O (stereo not shown) [Lactic Acid]
Odor [1]: No irritative odor | Vapor Pressure (20° C.) [8]: 0.01 KPa

Compound: CC(=O)OO [PAA, peroxyacetic acid, reference compound]
Odor [1]: Sharp pungent | Avg Log10 Survivors ([5]; 500 ppm): 6.54 Log10 | CFU/Surface (CFU/ml × 50) ([5]; 500 ppm): 4.35E+06 CFU/Surface and 2.35E+06 CFU/Surface and 3.95E+06 CFU/Surface | Log10 Reduction ([5]; 500 ppm): 1.09 Log10 | Log10 Survivors ([5]; 500 ppm): 6.64 Log10 and 6.37 Log10 and 6.60 Log10 | Concentration required for greater than 7 log reduction against Listeria [9]: at least 180 ppm | Vapor Pressure (20° C.) [8]: 2.06 KPa

Odor [1]: Odorless
Compound: O=C(O)CO [Glycolic acid]
Vapor Pressure (20° C.) [8]: 0.003 KPa
